# Source: patent US10859504B2, “Degradable cationic surfactants and use thereof in enhancing chemiluminescence” (Siemens Healthcare Diagnostics Inc., priority 2013, dated 2020)
# Experiments:
# [1] = Chemiluminescence measurement of anti-TSH antibody conjugate of acridinium ester 3b with cationic surfactants; details: for Observed enhancement (fold) of chemiluminescence: no surfactant control = 1; for Observed acceleration of emission kinetics (time to >90% emission): without surfactant 49.5 seconds
# Experimental: (§1) To study the impact of degradable cationic surfactants on acridinium ester chemiluminescence, two exemplary cationic surfactants containing cleavable linkages (FIG. 2A) were selected. The synthetic schemes for the two surfactants are illustrated in FIGS. 3-4 and described in Examples 1 and 2 above. Both surfactants were dissolved in Reagent 1 (0.1 M nitric acid containing 0.5% hydrogen peroxide) at five times their reported CMCs in water. CTAC dissolved in Reagent 2 (0.25 M NaOH) was used as the control surfactant. The two carbonate and amide cationic surfactants (FIG. 2A) were dissolved in Reagent 1 to preserve stability, especially during long term storage (Stjerndahl and Holmberg, J. Colloid and Interface Sci., 2005, 291, 570-576). Three acridinium esters (FIG. 2B, compounds 3a, 3b and 3c) were used to make protein conjugates of an anti-TSH antibody (TS=thyroid stimulating hormone) as described in the literature (Natrajan et al, Org. Biomol. Chem., 2011, 9, 5092-5103; Natrajan et al, Org. Biomol. Chem., 2012, 10, 3432-3447). The conjugates contained approximately 5 labels. The conjugates were stored at 4° C. in buffer and chemiluminescence from each conjugate was measured in the absence of surfactant and in the presence of CTAC as well as cationic surfactants 1 and 2 (Tables 1-3, FIGS. 5-7). The ability of each surfactant to (a) increase total light output and (b) accelerate emission kinetics was evaluated over a period of 80 days.
# (§2) Chemiluminescence of anti-TSH antibody conjugates of acridinium esters 3a, 3b and 3c (FIG. 2B) was measured on an Autolumat LB953 Plus luininometer from Behold Technologies. The conjugates, ˜2 mg/mL containing approximately five labels, were serially diluted 10^5-fold for chemiluminescence measurements in an aqueous buffer of 10 mM disodium hydrogen phosphate, 0.15 M NaCl and 8 mM sodium azide and 0.015 mM bovine serum albumin (BSA), pH 8.0. A 0.010 mL volume of each diluted acridinium ester sample was dispensed into the bottom of a cuvette. Cuvettes were placed into the primed LB953 and the chemiluminescence reaction was initiated with the sequential addition of 0.3 mL of Reagent 1, a solution of 0.5% hydrogen peroxide in 0.1 M nitric acid followed by the addition of 0.3 mL of Reagent 2, a solution of 0.25 M sodium hydroxide. For measurements in the presence of CTAC, the surfactant (7 mM) was included in Reagent 2. For measurements in the presence of the cationic amide surfactant 1 or the cationic carbonate surfactant 2, each surfactant was dissolved in Reagent 1 at 3.2 mM (surfactant 1) and 2.15 mM (surfactant 2). Each chemiluminescence flash curve was measured in 240 intervals of 0.5 second (120 seconds total time). Each chemiluminescence reaction was carried out a minimum of three times, averaged and converted to a percentage of the chemiluminescence accumulated up to each time interval. The output from the luminometer instrument was expressed as R.L.U.s (Relative Light Units).
# [2] = cited from earlier work
# [3] = Chemiluminescence measurement of anti-TSH antibody conjugate of acridinium ester 3c with cationic surfactants; details: for Observed enhancement (fold) of chemiluminescence: no surfactant control = 1; for Observed acceleration of emission kinetics (time to >90% emission): without surfactant 62.5 seconds
# Experimental: as §1, §2
# [4] = Chemiluminescence measurement of anti-TSH antibody conjugate of acridinium ester 3a with cationic surfactants; details: for Observed enhancement (fold) of chemiluminescence: no surfactant control = 1; for Observed acceleration of emission kinetics (time to >90% emission): without surfactant 57.5 seconds
# Experimental: as §1, §2
smiles,measurement,setting,value
"CCCCCCCCCCCCCCCC[N+](C)(C)C.[Cl-] [CTAC, cetyltrimethylammonium chloride, reference compound]",Observed enhancement (fold) of chemiluminescence,[1]; Day 1,5.3 fold
same,Observed acceleration of emission kinetics (time to >90% emission),[1]; Day 1,1.0 s
same,Observed enhancement (fold) of chemiluminescence,[1]; Day 10,5.2 fold
same,Observed acceleration of emission kinetics (time to >90% emission),[1]; Day 10,1.0 s
same,Observed enhancement (fold) of chemiluminescence,[1]; Day 20,5.5 fold
same,Observed acceleration of emission kinetics (time to >90% emission),[1]; Day 20,1.0 s
same,Observed enhancement (fold) of chemiluminescence,[1]; Day 40,4.2 fold
same,Observed acceleration of emission kinetics (time to >90% emission),[1]; Day 40,1.0 s
same,Observed enhancement (fold) of chemiluminescence,[1]; Day 80,4.6 fold
same,Observed acceleration of emission kinetics (time to >90% emission),[1]; Day 80,1.0 s
same,increase of overall light output,[2]; acridinium ester labels and their conjugates,3-4 fold
same,emission time of the labels,"[2]; compressed from approximately 60 s, 7 mM CTAC in 0.25 M sodium hydroxide",< 5 s
same,Observed enhancement (fold) of chemiluminescence,[3]; Day 1,4.1 fold
same,Observed acceleration of emission kinetics (time to >90% emission),[3]; Day 1,2.0 s
same,Observed enhancement (fold) of chemiluminescence,[3]; Day 10,4.3 fold
same,Observed acceleration of emission kinetics (time to >90% emission),[3]; Day 10,2.0 s
same,Observed enhancement (fold) of chemiluminescence,[3]; Day 20,4.6 fold
same,Observed acceleration of emission kinetics (time to >90% emission),[3]; Day 20,2.5 s
same,Observed enhancement (fold) of chemiluminescence,[3]; Day 40,3.9 fold
same,Observed acceleration of emission kinetics (time to >90% emission),[3]; Day 40,2.5 s
same,Observed enhancement (fold) of chemiluminescence,[3]; Day 80,4.0 fold
same,Observed acceleration of emission kinetics (time to >90% emission),[3]; Day 80,2.5 s
same,Observed enhancement (fold) of chemiluminescence,[4]; Day 1,3.5 fold
same,Observed acceleration of emission kinetics (time to >90% emission),[4]; Day 1,1.5 s
same,Observed enhancement (fold) of chemiluminescence,[4]; Day 10,3.6 fold
same,Observed acceleration of emission kinetics (time to >90% emission),[4]; Day 10,1.5 s
same,Observed enhancement (fold) of chemiluminescence,[4]; Day 20,4.0 fold
same,Observed acceleration of emission kinetics (time to >90% emission),[4]; Day 20,1.5 s
same,Observed enhancement (fold) of chemiluminescence,[4]; Day 40,3.4 fold
same,Observed acceleration of emission kinetics (time to >90% emission),[4]; Day 40,1.5 s
same,Observed enhancement (fold) of chemiluminescence,[4]; Day 80,3.5 fold
same,Observed acceleration of emission kinetics (time to >90% emission),[4]; Day 80,1.5 s
same,accelerated emission kinetics,"[4]; as shown in Table 1b, from 57.5 seconds without surfactant",1.5 s
